# Assay results published in US9067934B2, “Bicyclic pyridinones” (Pfizer Inc., priority 2011, dated 2015).
# Counter-ions that a name gives are not always drawn.
# Tested on: production of amyloid beta protein Aβ(1-42) (γ-secretase) in human WT-APP overexpressing CHO cells
# Experiment: Cell-Based γ-Secretase Assay with ELISA Readout
# Settings: human WT-APP overexpressing CHO cells, ~24 hours at 37° C., Aβ(1-42) ELISA; footnotes: a = geometric mean of >15 determinations, b = single determination, c = geometric mean of 7-15 determinations; read-out: Aβ 42B IC50 (Geometric Mean of 2-6 Determinations)
# Procedure, shortened: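 Human WT-APP-overexpressing CHO cells were pre-cultured 24 h at 37° C, then exposed to compounds (eleven-point half-log series, 1% final DMSO) for ~24 h. Aβ(1-42) in conditioned media was captured with Aβ(1-42)-specific antibody and detected with Eu-labeled 6e10 by DELFIA TRF. IC50 by nonlinear regression against min/max inhibition controls.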
row,Compound,IC50
1,"Cc1cn(-c2ccc3n(c2=O)CCN(CCOc2ncc(Cl)c4ccccc24)C3=O)cn1 [Example 68, 2-{2-[(4-chloroisoquinolin-1-yl)oxy]ethyl}-7-(4-methyl-1H-imidazol-1-yl)-3,4-dihydro-2H-pyrido[1,2-a]pyrazine-1,6-dione, trifluoroacetate salt]",59.4 nM
2,"Cc1cn(-c2ccc3n(c2=O)CCN(CCOc2ccnc4ccc(C(F)(F)F)cc24)C3=O)cn1 [Example 69, 7-(4-methyl-1H-imidazol-1-yl)-2-(2-{[6-(trtfluoromethyl)quinolin-4-yl]oxy}ethyl)-3,4-dihydro-2H-pyrido[1,2-a]pyrazine-1,6-dione]",58.3 nM
3,"C#CCCCOc1ccc(C(=O)c2cccc(OCCN3CCn4c(ccc(-n5cnc(C)c5)c4=O)C3=O)c2)cc1 [Example 70, 7-(4-methyl-1H-imidazol-1-yl)-2-(2-{3-[4-(pent-4-yn-1-yloxy)benzoyl]phenoxy}ethyl)-3,4-dihydro-2H-pyrido[1,2-a]pyrazine-1,6-dione]",135 nM
4,"Cc1cn(-c2ccc3n(c2=O)CCN(CCOc2cccc4c2c2ccccc2n4C)C3=O)cn1 [Example 71, 2-{2-[(9-methyl-9H-carbazol-4-yl)oxy]ethyl}-7-(4-methyl-1H-imidazol-1-yl)-3,4-dihydro-2H-pyrido[1,2-a]pyrazine-1,6-dione, trifluoroacetate salt]",4.22 nM
5,"Cc1cn(-c2ccc3n(c2=O)CCN(CCOc2ccccc2-c2cc(C(F)(F)F)no2)C3=O)cn1 [Example 72, 7-(4-methyl-1H-imidazol-1-yl)-2-(2-{2-[3-(trifluoromethyl)isoxazol-5-yl]phenoxy}ethyl)-3,4-dihydro-2H-pyrido[1,2-a]pyrazine-1,6-dione]",14.8 nM
6,"Cc1cn(-c2ccc3n(c2=O)CCN(CCOc2ccc(F)c4nc(C(F)(F)F)sc24)C3=O)cn1 [Example 73, 2-(2-{[4-fluoro-2-(trifluoromethyl)-1,3-benzothiazol-7-yl]oxy}ethyl)-7-(4-methyl-1H-imidazol-1-yl)-3,4-dihydro-2H-pyrido[1,2-a]pyrazine-1,6-dione]",43.7 nM
7,"Cc1cn(-c2ccc3n(c2=O)CCN(CCOc2nccc4oc5ccccc5c24)C3=O)cn1 [Example 74, 2-[2-([1]benzofuro[3,2-c]pyridin-1-yloxy)ethyl]-7-(4-methyl-1H-imidazol-1-yl)-3,4-dihydro-2H-pyrido[1,2-a]pyrazine-1,6-dione]",38.5 nM
8,"Cc1cn(-c2ccc3n(c2=O)CCN(CCOc2ncc(F)cc2-c2csc(C(F)(F)F)n2)C3=O)cn1 [Example 75, 2-[2-({5-fluoro-3-[2-(trifluoromethyl)-1,3-thiazol-4-yl]pyridin-2-yl}oxy)ethyl]-7-(4-methyl-1H-imidazol-1-yl)-3,4-dihydro-2H-pyrido[1,2-a]pyrazine-1,6-dione]",62.3 nM
9,"Cc1cn(-c2ccc3n(c2=O)CCN(CCOc2ccc(F)cc2C2CC(F)(F)C2)C3=O)cn1 [Example 76, 2-{2-[2-(3,3-difluorocyclobutyl)-4-fluorophenoxy]ethyl}-7-(4-methyl-1H-imidazol-1-yl)-3,4-dihydro-2H-pyrido[1,2-a]pyrazine-1,6-dione]",58.6 nM
10,"Cc1cn(-c2ccc3n(c2=O)CCN(CCOc2nsc4ccc(Cl)cc24)C3=O)cn1 [Example 77, 2-{2-[(5-chloro-1,2-benzisothiazol-3-yl)oxy]ethyl}-7-(4-methyl-1H-imidazol-1-yl)-3,4-dihydro-2H-pyrido[1,2-a]pyrazine-1,6-dione]",66.2 nM
11,"COc1ccc2c(OCCN3CCn4c(ccc(-n5cnc(C)c5)c4=O)C3=O)cccc2c1 [Example 78, 2-{2-[(6-methoxy-1-naphthyl)oxy]ethyl}-7-(4-methyl-1H-imidazol-1-yl)-3,4-dihydro-2H-pyrido[1,2-a]pyrazine-1,6-dione]",87.5 nM
12,"Cc1cn(-c2ccc3n(c2=O)CCN(CCOc2cccc4sc5ccccc5c24)C3=O)cn1 [Example 79, 2-[2-(dibenzo[b,d]thien-1-yloxy)ethyl]-7-(4-methyl-1H-imidazol-1-yl)-3,4-dihydro-2H-pyrido[1,2-a]pyrazine-1,6-dione]",7.23 nM
13,"Cc1cn(-c2ccc3n(c2=O)CCN(CCOc2ccc(F)c4sc(C(F)(F)F)nc24)C3=O)cn1 [Example 80, 2-(2-{[7-fluoro-2-(trifluoromethyl)-1,3-benzothiazol-4-yl]oxy}ethyl)-7-(4-methyl-1H-imidazol-1-yl)-3,4-dihydro-2H-pyrido[1,2-a]pyrazine-1,6-dione]",152 nM
14,"Cc1cn(-c2ccc3n(c2=O)CCN(CCOc2cccc(-n4ccc(C(F)(F)F)n4)c2)C3=O)cn1 [Example 81, 7-(4-methyl-1H-imidazol-1-yl)-2-(2-{3-[3-(trifluoromethyl)-1H-pyrazol-1-yl]phenoxy}ethyl)-3,4-dihydro-2H-pyrido[1,2-a]pyrazine-1,6-dione, trifluoroacetate salt]",384 nM
15,"Cc1cn(-c2ccc3n(c2=O)CCN(CCOc2noc4ccc(Cl)cc24)C3=O)cn1 [Example 82, 2-{2-[(5-chloro-1,2-benzisoxazol-3-yl)oxy]ethyl}-7-(4-methyl-1H-imidazol-1-yl)-3,4-dihydro-2H-pyrido[1,2-a]pyrazine-1,6-dione]",209 nM
16,"Cc1cn(-c2ccc3n(c2=O)CCN(CCOc2cccc4ccc(F)cc24)C3=O)cn1 [Example 83, 2-{2-[(7-fluoronaphthalen-1-yl)oxy]ethyl}-7-(4-methyl-1H-imidazol-1-yl)-3,4-dihydro-2H-pyrido[1,2-a]pyrazine-1,6-dione]",12.3 nM
17,"Cc1cn(-c2ccc3n(c2=O)CCN(CCOc2cc(C(F)(F)F)nc4cc(Cl)ccc24)C3=O)cn1 [Example 84, 2-(2-{[7-chloro-2-(trrfluoromethyl)quinolin-4-yl]oxy}ethyl)-7-(4-methyl-1H-imidazol-1-yl)-3,4-dihydro-2H-pyrido[1,2-a]pyrazine-1,6-dione]",71.5 nM
18,"Cc1cn(-c2ccc3n(c2=O)CCN(CCOc2ccc(F)cc2-n2ccc(C(F)(F)F)n2)C3=O)cn1 [Example 85, 2-(2-{4-fluoro-2-[3-(trifluoromethyl)-1H-pyrazol-1-yl]phenoxy}ethyl)-7-(4-methyl-1H-imidazol-1-yl)-3,4-dihydro-2H-pyrido[1,2-a]pyrazine-1,6-dione]",106 nM
19,"Cc1cn(-c2ccc3n(c2=O)CCN(CCOc2cnc(C(F)(F)F)c4ccccc24)C3=O)cn1 [Example 86, 7-(4-methyl-1H-imidazol-1-yl)-2-(2-{[1-(trifluoromethyl)isoquinolin-4-yl]oxy}ethyl)-3,4-dihydro-2H-pyrido[1,2-a]pyrazine-1,6-dione, trifluoroacetate salt]",107 nM
20,"Cc1cn(-c2ccc3n(c2=O)CCN(CCOc2ccc(F)c4oc5ccccc5c24)C3=O)cn1 [Example 87, 2-{2-[(4-fluorodibenzo[b,d]furan-1-yl)oxy]ethyl}-7-(4-methyl-1H-imidazol-1-yl)-3,4-dihydro-2H-pyrido[1,2-a]pyrazine-1,6-dione]",22.8 nM
21,"Cc1cn(-c2ccc3n(c2=O)CCN(CCOc2ccccc2-c2cccc(F)c2)C3=O)cn1 [Example 88, 2-{2-[(3′-fluorobiphenyl-2-yl)oxy]ethyl}-7-(4-methyl-1H-imidazol-1-yl)-3,4-dihydro-2H-pyrido[1,2-a]pyrazine-1,6-dione, formate salt]",75.4 nM
22,"Cc1cn(-c2ccc3n(c2=O)CCN(CCOc2ccccc2-c2ccc(F)cc2)C3=O)cn1 [Example 89, 2-{2-[(4′-fluorobiphenyl-2-yl)oxy]ethyl}-7-(4-methyl-1H-imidazol-1-yl)-3,4-dihydro-2H-pyrido[1,2-a]pyrazine-1,6-dione, formate salt]",101 nM
23,"Cc1cn(-c2ccc3n(c2=O)CCN(CCOc2ccccc2-c2ccc(C#N)cc2)C3=O)cn1 [Example 90, 2′-{2-[7-(4-methyl-1H-imidazol-1-yl)-1,6-dioxo-1,3,4,6-tetrahydro-2H-pyrido[1,2-a]pyrazin-2-yl]ethoxy}biphenyl-4-carbonitrile, formate salt]",147 nM
24,"Cc1cn(-c2ccc3n(c2=O)CCN(CCOc2ccccc2-c2ccc4c(c2)OCO4)C3=O)cn1 [Example 91, 2-{2-[2-(1,3-benzodioxol-5-yl)phenoxy]ethyl}-7-(4-methyl-1H-imidazol-1-yl)-3,4-dihydro-2H-pyrido[1,2-a]pyrazine-1,6-dione, formate salt]",120 nM
25,"Cc1cn(-c2ccc3n(c2=O)CCN(CCOc2ccccc2-c2cc4ccccc4o2)C3=O)cn1 [Example 92, 2-{2-[2-(1-benzofuran-2-yl)phenoxy]ethyl}-7-(4-methyl-1H-imidazol-1-yl)-3,4-dihydro-2H-pyrido[1,2-a]pyrazine-1,6-dione, formate salt]",4.87 nM
26,"Cc1ccc(-c2ccccc2OCCN2CCn3c(ccc(-n4cnc(C)c4)c3=O)C2=O)cc1 [Example 93, 2-{2-[(4′-methylbiphenyl-2-yl)oxy]ethyl}-7-(4-methyl-1H-imidazol-1-yl)-3,4-dihydro-2H-pyrido[1,2-a]pyrazine-1,6-dione, formate salt]",75.8 nM
27,"Cc1cn(-c2ccc3n(c2=O)CCN(CCOc2ccccc2-c2ccc(Cl)cc2)C3=O)cn1 [Example 94, 2-{2-[(4′-chlorobiphenyl-2-yl)oxy]ethyl}-7-(4-methyl-1H-imidazol-1-yl)-3,4-dihydro-2H-pyrido[1,2-a]pyrazine-1,6-dione, formate salt]",108 nM
28,"Cc1cccc(-c2ccccc2OCCN2CCn3c(ccc(-n4cnc(C)c4)c3=O)C2=O)c1 [Example 95, 2-{2-[(3′-methylbiphenyl-2-yl)oxy]ethyl}-7-(4-methyl-1H-imidazol-1-yl)-3,4-dihydro-2H-pyrido[1,2-a]pyrazine-1,6-dione, formate salt]",143 nM
29,"Cc1cn(-c2ccc3n(c2=O)CCN(CCOc2cccc4cc(F)c(F)cc24)C3=O)cn1 [Example 96, 2-{2-[(6,7-difluoronaphthalen-1-yl)oxy]ethyl}-7-(4-methyl-1H-imidazol-1-yl)-3,4-dihydro-2H-pyrido[1,2-a]pyrazine-1,6-dione, trifluoroacetate salt]",48.2 nM
